For data set [1], the system named is PC12 cells. Description: Uptake of uridine into PC12 cells. It is filed as cell-based.
Another data set relates to IP signaling. Description: PI turnover / inositol phosphate formation in NGF-differentiated PC12 cells. The settings on record: for Formation of IP: NGF-differentiated PC12 cells, 1 hour, UTP 100 μM (p<0.05), uridine 50 μM (p<0.01). It counts as cell-based. How it is done:
Analysis of PI turnover was performed as described by (Nitsch R M et al, J Neurochem 69: 704-12, 1997). Briefly, cells were labeled metabolically for 36 h with 1.25 microCurie (μCi)/dish of myo-[2-^3H]inositol (17.0 Curie/mmol; Amersham Biosciences) in serum-free MEM, washed twice with Hank's balanced salt solution (HBSS), and treated for 15 min with 10 mM lithium chloride in HBSS. Drugs were added in the presence of 10 mM lithium for 60 min at 37° C. Cells were lysed with ice-cold methanol, and lipids were removed by extraction with chloroform/methanol/water (2:2:1 by volume). Labeled water-soluble inositol phosphates were separated from free [^3H]inositol by ion-exchange chromatography, using AG 1-X8 columns (Bio-Rad), and 1M ammonium formate and 0.1M formic acid as eluent. Radioactivity was quantified by liquid scintillation spectrometry.

Data set [2] relates to PC12 cells. In words: NGF-induced neurite outgrowth, branching and length in PC12 cells. It counts as cell-based. The protocol:
(§1) PC12 cells were maintained in Minimal Essential Medium (MEM; Invitrogen, Carlsbad, Calif.) supplemented with 10% fetal bovine serum (FBS) at 37° C. Experimental incubations were for 2 or 4 days in medium containing 50 ng/ml mouse 2.5 S (2.5 subunit) NGF and 1% FBS, with or without test compounds. NGF and FBS were obtained from Invitrogen.
PC12 cells were sparsely plated on collagen-coated 60 mm culture dishes in MEM containing 1% fetal bovine serum. […] All treatments were performed 24 h after plating. At the end of the treatment period, images were obtained with a phase-contrast Zeiss Axioplan 2 microscope, using OpenLab software. Six digital images were captured for each dish, for a total of 18 to 24 images per treatment group Approximately 300 cells were quantified for each treatment group for each experiment. Experiments were performed in triplicate. Quantification of neurites, including neurite branching and neurite length, was performed by one more researchers blinded to experimental groups Neurite length was measured using the public domain NIH software “Image J.” Processes longer than the diameter of the cell body were counted as neurites. Only process-bearing cells were analyzed.

Data set [3] concerns PC12 cells. Description: Intracellular UTP and CTP levels in PC12 cells by HPLC. It counts as cell-based. Conditions: 2 days with NGF; uridine 50 μM, UTP 100 μM, cytidine 50 μM. The protocol:
(§2) Brain tissue or cells was dissolved in methanol/chloroform (1:2 vol/vol), centrifuged, and the aqueous phase was dried under vacuum, resuspended in 100-200 μL water and separated by HPLC on an ion-exchange column (Alltech Hypersil APS-2, 5 μM, 250×4.6 mm). CDP-choline was eluted with a linear gradient of NaH2PO4 buffers A (1.75 mM NaH2PO4, pH 2.9) and B (500 mM, pH 4.5), which allowed resolution of CDP-choline from closely co-eluting substances such as UMP over 40 min. The retention time for CDP-choline was 9.5 min. Individual nucleotide peaks were detected by UV absorption at […], and were identified by comparison with the positions of authentic standards, as well as by the addition of nucleotide standards to selected samples.
Levels of intracellular UTP and CTP were analyzed by HPLC as described for Example 5, except that 5 mM NaH2PO4, pH 2.65 was used as buffer A.

The nature of data set [4]: Conversion of uridine to cytidine in plasma and brain of gerbils. The settings on record: 250 mg/kg uridine orally, 60 min. It is filed as in vivo.
Data set [5] deals with PC12 cells. Description: Intracellular CDP-choline levels in PC12 cells. The settings on record: after 50 minutes. It counts as cell-based. How it is done:
as §2, §1

A further data set relates to NF-70. In words: NF-70 levels in PC12 cells (Western blotting). It counts as cell-based. The protocol: as §1
(§3) Equal amounts of protein (40 μg protein/lane) were loaded for sodium dodecyl sulfate-polyacrylamide gel electrophoresis (4-15% SDS PAGE; Bio-Rad, Hercules, Calif.). Prior to gel electrophoresis, bromphenol blue solution (0.07%) was added to each sample. Proteins were separated, transferred onto polyvinylidene difluoride (PVDF) membranes (Immobilon-P, Millipore), and blocked with 5% bovine serum albumin (Tris-buffered saline/0.15% Tween 20) for 1 h. After 3 10 min rinses in Tris-buffered saline (TBST), blots were incubated in TBST with various antibodies against the proteins of interest, including NF-70, NF-M (1: 2000, 1: 5000, respectively; Calbiochem, La Jolla, Calif.) at 4° C. overnight on an orbital shaker. […] Films were digitized using a Supervista S-12 scanner with a transparency adapter (UMAX Technologies, Freemont, Calif.). Analysis was performed using the public domain NIH Image program (NIH V.1.61).

The test system of a further data set is NF-M. In words: NF-M levels in PC12 cells (Western blotting). It is filed as cell-based. How it is done:
as §1, §3

The test system of data set [6] is P2Y2, P2Y4 and P2Y6 receptors. In words: P2Y receptor expression in NGF-differentiated PC12 cells. It counts as cell-based. Conditions: compared with cells exposed to NGF alone. How it is done:
Western blots utilized rabbit anti-P2Y2, anti-P2Y4 (both from Calbiochem); or rabbit anti-P2Y6 (Novus Biologicals, Littleton, Colo.).
PC 12 cells were treated as described above, except they were grown on 12 mm glass cover slips (A Daigger & Co., Vernon Hills, Ill.) coated with collagen. Proteins were visualized using immunofluorescence. Briefly, the cells were fixed with 4% paraformaldehyde, permeabilized with 0.25% Triton X-100, blocked in 10% normal goat serum, and incubated overnight in the appropriate antibodies (mouse anti-NF-70, and either rabbit anti-P2Y2, rabbit anti-P2Y4 or rabbit anti-P2Y6). For P2Y2 and P2Y4 visualization, control cultures were incubated with primary antibody plus a control antigen in order to ensure that the immuno-staining would be specific. Control antigen was not available for the P2Y6 receptor. Cells were then incubated in fluorochrome-conjugated secondary antibodies for 1 hour (goat anti-rabbit ALEXA 488 and goat anti-mouse ALEXA 568; Molecular Probes, Eugene, Oreg.) and mounted on glass slides with mounting media with or without DAPI (Vector Laboratories, Burlingame, Calif.). Control antigens provided with the primary antibodies were used to ensure that immuno-staining was specific. Digital images were obtained on a Zeiss (Oberkochen, Germany) Axioplan microscope with OpenLab software, using a Zeiss Plan-Neofluor 40× oil-immersion objective.

For `Cc1nc(N=Nc2ccc(S(=O)(=O)O)cc2S(=O)(=O)O)c(COP(=O)(O)O)c(C=O)c1O` [PPADS, pyridoxal-phosphate-6-azophenyl-2′,4′ disulfonic acid, reference compound], the “Inhibition of uptake of uridine into PC12 cells” value (from here on “Inhibition”) in the data set with PC12 cells [1] is listed as “None of the P2Y receptor antagonists inhibited the uptake of uridine”. In the data set on IP signaling (PPADS 100 μM), the “Block of stimulation of IP signaling by UTP” value was “significantly (p<0.05) blocked”.
As to `Nc1c(S(=O)(=O)O)cc(Nc2ccc(Nc3nc(Cl)nc(Nc4cccc(S(=O)(=O)O)c4)n3)c(S(=O)(=O)O)c2)c2c1C(=O)c1ccccc1C2=O` [RB-2, reactive blue 2], the “Inhibition” value in the data set with PC12 cells [1] is listed as “None of the P2Y receptor antagonists inhibited the uptake of uridine”.
Take `O=c1ccn([C@@H]2O[C@H](COP(=O)(O)OP(=O)(O)OP(=O)(O)O)[C@@H](O)[C@H]2O)c(=O)[nH]1` [UTP, uridine-5′-triphosphate]: in the data set on PC12 cells [2] (with NGF, 10 and 50 μM, 4 days, vs NGF only), the Neurite outgrowth entry is “significantly (p<0.01) enhanced”. Moreover, in the data set with PC12 cells [3], the “Intracellular CTP levels” value is given as “did not significantly affect” and the “Intracellular UTP levels” value is recorded as “did not significantly affect”. In addition, the “Formation of IP” value in the data set on IP signaling is “significantly increased”.
Turning to `Nc1ccn([C@@H]2O[C@H](CO)[C@@H](O)[C@H]2O)c(=O)n1` [cytidine, reference compound], the Neurite outgrowth result in the data set with PC12 cells [2] (NGF-exposed cells, cytidine) is “had no effect on neurite outgrowth”. Moreover, in the data set with PC12 cells [3], the “Intracellular CTP levels” value is recorded as “did not significantly affect” and the “Intracellular UTP levels” value was “did not significantly affect”.
Turning to `Cc1ccc(C(=O)Nc2ccc(S(=O)(=O)O)c3cc(S(=O)(=O)O)cc(S(=O)(=O)O)c23)cc1NC(=O)c1cccc(NC(=O)Nc2cccc(C(=O)Nc3cc(C(=O)Nc4ccc(S(=O)(=O)O)c5cc(S(=O)(=O)O)cc(S(=O)(=O)O)c45)ccc3C)c2)c1` [suramin], the “Inhibition” value with PC12 cells [1] is recorded as “None of the P2Y receptor antagonists inhibited the uptake of uridine”.
For `O=c1ccn([C@@H]2O[C@H](CO)[C@@H](O)[C@H]2O)c(=O)[nH]1` [uridine], in data set [4], the “Conversion to cytidine in brain versus plasma” value is listed as “more efficiently converted to cytidine than in plasma”. Besides, in the data set on PC12 cells [5], the “Intracellular CDP-choline levels” value was “statistically significant increase”. Further, the Average neurite length result in the data set with PC12 cells [2] (NGF-differentiated cells) was “did not significantly affect”. In addition, the Production of neurites result in the data set with PC12 cells [2] (absence of NGF, 50 μM, 2 or 4 days) is reported as “did not result in the production of neurites”. For the same compound, the “Number of neurite branch points per cell” value with PC12 cells [2] (with NGF, 50 μM, 4 days) is on record as “significantly (p<0.01) increased”. Also, the “Number of neurites per cell” value in the data set on PC12 cells [2] (with NGF, 2-day treatment or lower concentrations (10, 25 μM)) was “had no effect”. The NF-70 expression entry with NF-70 (NGF plus 50 μM, 4 days, vs NGF only, p<0.01) is given as “increased”. Also, the NF-70 level result in the data set with NF-70 (absence of NGF) is listed as “had no effect”. Also, the NF-M expression entry in the data set with NF-M (NGF plus 50 μM, 4 days, vs NGF only, p<0.001) is “increased”. For the same compound, the NF-M level result with NF-M (absence of NGF) was “had no effect”. Also, in the data set on PC12 cells [3], the “Intracellular CTP levels” value was “significantly (p<0.05) increased” and the “Intracellular UTP levels” value is listed as “significantly (p<0.05) increased”. For the same compound, in data set [6], the “Expression of P2Y2, P2Y4 and P2Y6 receptors” value is recorded as “did not affect the expression”. Besides, the “Formation of IP” value in the data set on IP signaling is on record as “significantly increased”.

The values are drawn from patent US8518882B2, “Methods and compositions for ameliorating or inhibiting decline in memory or intelligence or improving same” (priority 1998, dated 2013).
